GI50 and TGI data for seven compounds are collected here from PubChem BioAssay (NCI).

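Values below derive from 48-hour exposures of cells grown in 96-well plates, with endpoints linearly interpolated between the two concentrations bracketing the appropriate inhibition level. GI50 marks 50% less growth. TGI: total growth inhibition.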 Bounds are passed on as bounds.

Some test systems named below: OVCAR-8 ovarian; HCT-15 colon; UACC-62 melanoma; MOLT-4 leukemia; MCF7 breast; SNB-75 CNS; RPMI-8226 leukemia; SK-MEL-2 melanoma; TK-10 renal; SF-539 CNS.
Common to all, as to assay: NCI anticancer screen, dose series, 48 h

Turning to `CC(C)(C)OC(=O)NCCCCCCCCCCCCn1c2c(c3ccccc3c1=O)C(=O)c1ccccc1-2`, the GI50 was 49.8 µM in the experiment with OVCAR-8 ovarian; more than 100 µM in the experiment on HCT-15 colon; 27.4 µM in the experiment on UACC-62 melanoma; 49.4 µM with MOLT-4 leukemia; more than 100 µM in the experiment on MCF7 breast; 8.56 µM in the experiment on SNB-75 CNS. Also, the GI50 is more than 100 µM with RPMI-8226 leukemia, 18.1 µM in the experiment with SK-MEL-2 melanoma, 19.1 µM in the experiment with TK-10 renal and 20.6 µM with SF-539 CNS. Also, the TGI in the experiment on OVCAR-8 ovarian was more than 100 µM; in the experiment on HCT-15 colon, more than 100 µM; with UACC-62 melanoma, more than 100 µM; in the experiment with MOLT-4 leukemia it was more than 100 µM; in the experiment with MCF7 breast, more than 100 µM; in the experiment with SNB-75 CNS, 26.3 µM. The TGI was more than 100 µM in the experiment with RPMI-8226 leukemia, 38.2 µM with SK-MEL-2 melanoma, 45.5 µM in the experiment with TK-10 renal and 61.9 µM in the experiment with SF-539 CNS.
`Cn1cc(-c2csc(-c3ccc(Cl)cc3)n2)c2cccnc21`: the GI50 was 22.8 µM with OVCAR-8 ovarian; 12.2 µM in the experiment on HCT-15 colon; 10.5 µM with UACC-62 melanoma; 12.4 µM with MOLT-4 leukemia; 11.9 µM in the experiment on MCF7 breast; 20 µM in the experiment with SNB-75 CNS. The GI50 in the experiment with RPMI-8226 leukemia is 12.3 µM; in the experiment on SK-MEL-2 melanoma, 17.4 µM; in the experiment on TK-10 renal, 12.4 µM; in the experiment with SF-539 CNS, 14.8 µM. For the same compound, the TGI came to 66.6 µM in the experiment with OVCAR-8 ovarian; 29.3 µM in the experiment on HCT-15 colon; 29.8 µM in the experiment with UACC-62 melanoma; 38.6 µM in the experiment with MOLT-4 leukemia; 29.8 µM with MCF7 breast; 54.3 µM with SNB-75 CNS. For the same compound, the TGI in the experiment with RPMI-8226 leukemia was determined as 78.6 µM; in the experiment on SK-MEL-2 melanoma it was 42.5 µM; in the experiment with TK-10 renal, 31.1 µM; with SF-539 CNS, 29.5 µM.
Consider `COc1ccc2c(c1)[n+](=O)c(/C=C/C(=O)c1cc(OC)c(OC)c(OC)c1)c(C)n2[O-]`, for which the GI50 was 5.3 µM in the experiment with OVCAR-8 ovarian; 3.79 µM with HCT-15 colon; 2.9 µM in the experiment on UACC-62 melanoma; 2.55 µM in the experiment on MOLT-4 leukemia; 3.14 µM in the experiment on MCF7 breast; 11.9 µM in the experiment with SNB-75 CNS. Moreover, the GI50 is 3.05 µM with RPMI-8226 leukemia, 11.5 µM in the experiment on SK-MEL-2 melanoma, 8.74 µM in the experiment on TK-10 renal and 15.7 µM in the experiment on SF-539 CNS. The TGI in the experiment with OVCAR-8 ovarian is more than 100 µM; in the experiment with HCT-15 colon it was 23.2 µM; in the experiment on UACC-62 melanoma, 14.1 µM; in the experiment on MOLT-4 leukemia, 25.3 µM; with MCF7 breast, more than 100 µM; in the experiment with SNB-75 CNS, 43.1 µM. For the same compound, the TGI was 15.6 µM with RPMI-8226 leukemia, 28.3 µM with SK-MEL-2 melanoma, more than 100 µM with TK-10 renal and 38.8 µM with SF-539 CNS.
With `BrCc1ccc2ccc3ccc(CBr)nc3c2n1`, the TGI with OVCAR-8 ovarian is 15.7 µM; in the experiment with HCT-15 colon, 4.18 µM; in the experiment on UACC-62 melanoma, more than 37.8 µM; in the experiment on MOLT-4 leukemia it was 4.66 µM; with MCF7 breast, 4.87 µM; in the experiment with SNB-75 CNS, 6.69 µM. The TGI is more than 100 µM in the experiment with RPMI-8226 leukemia, 15 µM with SK-MEL-2 melanoma, 5.72 µM in the experiment on TK-10 renal and 11 µM with SF-539 CNS.
Regarding `CCN(CC)c1ccc(/C=N/N=C(N)N)cc1`, the GI50 in the experiment on OVCAR-8 ovarian was 5.06 µM; in the experiment on HCT-15 colon, 4.76 µM; in the experiment on UACC-62 melanoma, 4.23 µM; in the experiment with MOLT-4 leukemia, 4.95 µM; in the experiment with MCF7 breast it was 2.62 µM; in the experiment with SNB-75 CNS, 3.74 µM. Further, the GI50 in the experiment on RPMI-8226 leukemia was 2.84 µM; with SK-MEL-2 melanoma, 2.85 µM; with TK-10 renal, 7.87 µM; in the experiment on SF-539 CNS, 5.06 µM. The TGI with OVCAR-8 ovarian was 23.5 µM; with HCT-15 colon, 55.8 µM; with UACC-62 melanoma it was 18.1 µM; in the experiment on MOLT-4 leukemia, 35.7 µM; in the experiment with MCF7 breast, 14.8 µM; in the experiment with SNB-75 CNS, more than 100 µM. The TGI turned out to be 13.3 µM in the experiment with RPMI-8226 leukemia, 8.33 µM with SK-MEL-2 melanoma, 28.4 µM in the experiment with TK-10 renal and 30.5 µM with SF-539 CNS.
`COc1c(OC2OC(C)C(O)C(O)C2O)c(OC)c2oc(-c3ccc(O)cc3)cc(=O)c2c1O` (stereo not given): the GI50 is 28 µM in the experiment with OVCAR-8 ovarian; 40.3 µM with HCT-15 colon; 16.6 µM with UACC-62 melanoma; 15.4 µM in the experiment on MOLT-4 leukemia; 34.4 µM in the experiment with MCF7 breast; 20.6 µM with SNB-75 CNS. For the same compound, the GI50 in the experiment on RPMI-8226 leukemia was 28.2 µM; in the experiment with SK-MEL-2 melanoma, 47.4 µM; in the experiment with TK-10 renal it was 72.2 µM; in the experiment with SF-539 CNS it was 34.3 µM. For the same compound, the TGI in the experiment on OVCAR-8 ovarian is more than 100 µM; with HCT-15 colon it was more than 100 µM; with UACC-62 melanoma, 38.4 µM; in the experiment on MOLT-4 leukemia, more than 100 µM; in the experiment with MCF7 breast, more than 100 µM; in the experiment with SNB-75 CNS, 87.1 µM. Further, the TGI is more than 100 µM with RPMI-8226 leukemia, more than 100 µM in the experiment with SK-MEL-2 melanoma, more than 100 µM in the experiment with TK-10 renal and 90.5 µM in the experiment with SF-539 CNS.
For the compound `Fc1ccc(-c2ncn(C3CCNCC3)c2-c2ccnc(Oc3ccc(Cl)cc3)n2)cc1`, the GI50 is 4.14 µM in the experiment with OVCAR-8 ovarian; 4.24 µM in the experiment with HCT-15 colon; 4.18 µM in the experiment on UACC-62 melanoma; 5.18 µM with MOLT-4 leukemia; 3.93 µM in the experiment on MCF7 breast; 3.4 µM in the experiment with SNB-75 CNS. The GI50 in the experiment on RPMI-8226 leukemia is 5.44 µM; with SK-MEL-2 melanoma it was 4.45 µM; with TK-10 renal, 3.97 µM; in the experiment on SF-539 CNS, 4.2 µM. In addition, the TGI with OVCAR-8 ovarian amounted to 8.99 µM; in the experiment with HCT-15 colon it was 9.46 µM; with UACC-62 melanoma, 8.04 µM; with MOLT-4 leukemia, 12.9 µM; with MCF7 breast, 7.7 µM; with SNB-75 CNS it was 14.3 µM. The TGI stood at 15.3 µM in the experiment with RPMI-8226 leukemia, 8.67 µM in the experiment on SK-MEL-2 melanoma, 7.97 µM in the experiment on TK-10 renal and 8.39 µM in the experiment on SF-539 CNS.
